ChEMBL document CHEMBL1781916, “p38alpha mitogen-activated protein kinase inhibitors: optimization of a series of biphenylamides to give a molecule suitable for clinical progression” (J Med Chem, 2009)
One block for each compound: values may come before it.

Experiments:
Rattus norvegicus [1] = assay: (§1) Clearance in Lewis rat at 1 mg/kg, iv; assay type: ADME, organism-based; set-up: dose 1 mg/kg, route intravenous; conditions: in vivo
[2] = (§2) Oral bioavailability in Lewis rat at 1 mg/kg; assay type: ADME, organism-based; conditions: Lewis, in vivo
[3] = Half life in Lewis rat at 1 mg/kg, iv; assay type: ADME, organism-based; set-up: dose 1 mg/kg, route intravenous; conditions: in vivo
[4] = AUC in Lewis rat 0.25 mg/kg, po; conditions: Lewis, plasma
[5] = as §1; assay type: ADME, organism-based; set-up: dose 1 mg/kg, route intravenous; conditions: Lewis, in vivo
[6] = Clearance in Lewis rat at 0.25 mg/kg, iv; assay type: ADME, organism-based; set-up: dose 0.25 mg/kg, route intravenous; conditions: in vivo
[7] = Oral bioavailability in Lewis rat at 0.25 mg/kg, po; assay type: ADME, organism-based; conditions: in vivo
[8] = Half life in Lewis rat at 0.25 mg/kg, iv and 0.25 mg/kg, po; assay type: ADME, organism-based; conditions: in vivo
Rattus norvegicus [9] = assay: AUC in Lewis rat 0.25 mg/kg, po; conditions: in vivo
[10] = Oral bioavailability in cynomolgus monkey at 1.4 mg/kg; assay type: ADME, organism-based, Macaca fascicularis; conditions: in vivo
Rattus norvegicus [11] = assay: Volume of distribution at steady state in Lewis rat at 1 mg/kg, iv; assay type: ADME, organism-based; set-up: dose 1 mg/kg, route intravenous; conditions: in vivo
[12] = Oral bioavailability in mouse; assay type: ADME, organism-based; conditions: in vivo
[13] = Ratio of drug level in brain to plasma in Lewis rat at 1 mg/kg, iv and 1 mg/kg, po; assay type: ADME, organism-based; conditions: read-out: BPR
[14] = Oral bioavailability in dog; assay type: ADME, organism-based, Canis lupus familiaris; conditions: in vivo
Rattus norvegicus [15] = assay: as §2; assay type: ADME, organism-based; conditions: in vivo

Structure (SMILES): Cc1ccc(C(=O)NC2CC2)cc1-c1ccc(C(=O)NCC2CC2)cn1
clearance (Rattus norvegicus [1]): 1.5 mL/min/kg
bioavailability [2]: 99%
half-life [3]: 3 h

Structure (SMILES): Cc1c(F)cc(C(=O)NC2CC2)cc1-c1ccc(C(=O)NCC2CC2)cn1
AUC [4]: 810 ng·h/mL
clearance [5]: 2.5 mL/min/kg
bioavailability [2]: > 95%
half-life [3]: 1.9 h

Structure (SMILES): Cc1c(F)cc(C(=O)NC2CC2)cc1-c1ccc(C(=O)NCC(C)C)cn1
AUC [4]: 360 ng·h/mL
clearance [6]: 6.4 mL/min/kg
bioavailability [7]: 56%
half-life [8]: 1.1 h

Structure (SMILES): Cc1c(F)cc(C(=O)NC2CC2)cc1-c1ccc(C(=O)N[C@H](C)C(C)C)cn1
AUC [4]: 50 ng·h/mL

Structure (SMILES): Cc1c(F)cc(C(=O)NC2CC2)cc1-c1ccc(C(=O)N[C@@H](C)C(C)C)cn1
AUC [4]: 8 ng·h/mL

Structure (SMILES): Cc1c(F)cc(C(=O)NC2CC2)cc1-c1ccc(C(=O)N[C@H](C)C(C)(C)C)cn1
AUC [4]: 23 ng·h/mL

More lines, now with the values ahead:

AUC [4]: 6 ng·h/mL
Structure (SMILES): Cc1c(F)cc(C(=O)NC2CC2)cc1-c1ccc(C(=O)N[C@@H](C)C(C)(C)C)cn1

AUC (Rattus norvegicus [9]): 220 ng·h/mL
bioavailability [10]: 35%
Vdss (Rattus norvegicus [11]): 0.9 L/kg
bioavailability [12]: 59%
Kp [13]: 0.1
bioavailability [14]: 55%
F (Rattus norvegicus [15]): 71%
bioavailability [7]: 51%
half-life [8]: 1.1 h
half-life [3]: 1.2 h
Structure (SMILES): Cc1c(F)cc(C(=O)NC2CC2)cc1-c1ccc(C(=O)NCC(C)(C)C)cn1 [LOSMAPIMOD]
